Experimental findings from patent US20210238139A1, “MODULATORS OF TRYPTOPHAN CATABOLISM” (E-Therapeutics PLC, priority 2018, published 2021) are described below.

The test system of one test is SK-OV-3 cells. As to the kind of experiment: Effect of compounds on tryptophan catabolism in SK-OV-3 cell line (inhibition of kynurenine production, LC-MS/MS). Type of test: cell-based. The settings on record: Homo sapiens, SK-OV-3, 24 h, SK-OV-3 cell line, 24 h incubation, kynurenine in supernatant by LC-MS/MS; read-out: IC50 Ranges (ic50 values for inhibition of Kynurenine production). A digest of the protocol: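 Cells seeded overnight in McCoy's 5A/10% FBS, then switched to DMEM F-12 with 6 mg/mL L-tryptophan; compounds added at 8 3-fold dilutions from 30 μM, in duplicate, 24 h at 37 °C. Supernatant kynurenine measured by LC-MS/MS; ATP-based viability run in parallel; IC50 from % inhibition of Kyn production.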

For a further test, the target named is T1, TDO2 enzyme (Homo sapiens, UniProt P48775).
T1 construct: purchased Netherlands Translational Research Center B.V. NTRC-hTDO-1K
As to the kind of experiment: TDO2 enzyme inhibition assay (hTDO2 assay kit, NFK-green). The settings on record: TDO2 enzyme 50 nM, tryptophan 200 μM, top concentration 30 μM; read-out: TDO2 Biochemical assay IC50. The method, then:
The effect of compounds on TDO2 enzymatic activity was assess by use of an hTDO2 assay kit (Netherlands Translational Research Center B.V., Cat #NTRC-hTDO-1K). TDO2 enzyme and tryptophan substrate are diluted in assay buffer. Compounds are tested at 8 consecutive 3-fold dilutions starting from 30 μM. 267 nL of compound is added per well of a 384-well plate followed by addition of 10 μL of assay buffer. TDO2 enzyme is added at a final concentration of 50 nM and pre-incubated for 60 min at room temperature in the dark. Tryptophan substrate solution is then added at final concentration of 200 μM to all wells and the plate incubated for 15 min at RT in the dark. Finally NFK-green reagent is added at ⅕ of total reaction volume and incubated for 4 h at RT in the dark. After incubation fluorescence is measured at Ex405 nm-Em535 nm using EnVision plate reader.
(§1) IC50 values are determined using GraphPad Prism software 5.04 for Windows by plotting percent of inhibition against log 10 concentrations of compounds using a four-parametric sigmoidal curve with a variable slope.

In another test the target is T2, IDO1 enzyme (Homo sapiens, UniProt P14902).
T2 construct: purchased Netherlands Translational Research Center B.V. NTRC-hIDO-1K
As to the kind of experiment: IDO1 enzyme inhibition assay (hIDO assay kit, NFK-green). As to conditions: IDO1 enzyme 25 nM, tryptophan 100 μM, top concentration 30 μM; read-out: IDO1 Biochemical assay IC50. The method, then: The effect of compounds on IDO1 enzymatic activity was assessed by use of a hIDO assay kit (Netherlands Translational Research Center B.V., Cat #NTRC-hIDO-1K). IDO1 enzyme and tryptophan substrate are diluted in assay buffer. Compounds are tested at 8 consecutive 3-fold dilutions starting from 30 μM. 267 nL of compound is added per well of a 384-well plate followed by addition of 10 μL of assay buffer. IDO1 enzyme is added at a final concentration of 25 nM and pre-incubated for 30 min at room temperature in the dark. Tryptophan substrate solution is then added at final concentration of 100 μM to all wells and the plate incubated for 60 min at RT in the dark. Finally NFK-green reagent is added at ⅕ of total reaction volume and incubated for 4 h at RT in the dark. After incubation fluorescence is measured at Ex405 nm-Em535 nm using EnVision plate reader.
as §1

T1 sequence (P48775 whole entry): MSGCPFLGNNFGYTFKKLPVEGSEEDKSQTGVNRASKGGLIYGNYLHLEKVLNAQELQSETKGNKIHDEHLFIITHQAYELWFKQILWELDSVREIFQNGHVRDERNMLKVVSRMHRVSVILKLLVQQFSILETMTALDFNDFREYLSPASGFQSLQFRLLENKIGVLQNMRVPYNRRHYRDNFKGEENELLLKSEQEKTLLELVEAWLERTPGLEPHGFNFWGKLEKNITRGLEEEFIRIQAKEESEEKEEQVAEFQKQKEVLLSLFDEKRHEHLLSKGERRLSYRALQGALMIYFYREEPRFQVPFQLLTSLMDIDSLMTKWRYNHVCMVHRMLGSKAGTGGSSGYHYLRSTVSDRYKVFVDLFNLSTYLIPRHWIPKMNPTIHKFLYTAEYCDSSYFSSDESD
T2 sequence (P14902 whole entry): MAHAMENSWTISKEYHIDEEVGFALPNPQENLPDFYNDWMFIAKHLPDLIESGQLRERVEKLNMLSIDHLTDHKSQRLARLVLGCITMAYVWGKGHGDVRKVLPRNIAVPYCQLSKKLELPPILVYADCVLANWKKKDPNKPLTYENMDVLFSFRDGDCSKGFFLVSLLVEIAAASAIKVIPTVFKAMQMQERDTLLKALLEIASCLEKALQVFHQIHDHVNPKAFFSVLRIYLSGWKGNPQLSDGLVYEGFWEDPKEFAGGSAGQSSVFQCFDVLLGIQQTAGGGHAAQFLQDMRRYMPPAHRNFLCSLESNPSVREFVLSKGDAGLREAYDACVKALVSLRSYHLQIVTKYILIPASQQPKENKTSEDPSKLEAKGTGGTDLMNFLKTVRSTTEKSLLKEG

In general, IC50 refers to the concentration that gives 50% inhibition. On to `Cc1ccc(CN(C(=O)Nc2ccc(N3CCOCC3)cc2)C2CCCC2)o1` [Compound 123, 1-cyclopentyl-1-[(5-methyl-2-furyl)methyl]-3-(4-morpholinophenyl)urea], for which the IC50 is above 5 µM in the test on SK-OV-3 cells and above 30 µM on TDO2 enzyme. Take `Cc1ccc(CN(C(=O)Nc2ccc(C#N)cc2)c2ccnn2C)o1` [Compound 215, 3-(4-cyanophenyl)-1-[(5-methyl-2-furyl)methyl]-1-(2-methylpyrazol-3-yl)urea]: the IC50 was above 5 µM with SK-OV-3 cells and above 30 µM at IDO1 enzyme. As for `Cc1ccc(CN(C(=O)Nc2ccc(Cl)nc2)C2CCCC2)o1` [Compound 92, 3-(6-chloro-3-pyridyl)-1-cyclopentyl-1-[(5-methyl-2-furyl)methyl]urea], the figures for the IC50 with SK-OV-3 cells and at TDO2 enzyme were below 0.1 µM and above 30 µM, respectively. In the same order, the values of `O=C(Nc1ccc(Cl)cc1)N(Cc1cc2ccccc2o1)C1CCCC1` [Compound 130, 1-(benzofuran-2-ylmethyl)-3-(4-chlorophenyl)-1-cyclopentyl-urea] are below 0.1 µM and above 30 µM. For `Cc1ccc(CN(C(=O)Nc2ccc(-c3cnoc3)cc2)C2CCCC2)o1` [Compound 105, 1-cyclopentyl-3-(4-isoxazol-4-ylphenyl)-1-[(5-methyl-2-furyl)methyl]urea], the IC50 with SK-OV-3 cells is 0.1 to 0.5 µM; at TDO2 enzyme it was above 30 µM.

Turning to `CCc1ccc(NC(=O)N(Cc2ccccn2)C2CCCCC2)cc1` [Compound 21, 1-cyclohexyl-3-(4-ethylphenyl)-1-(2-pyridylmethyl)urea], the IC50 with SK-OV-3 cells is 1 to 5 µM; at TDO2 enzyme it was above 30 µM. Turning to `Cc1ccc(CN(C(=O)Nc2ccc(C#CCN)cc2)C2CCCC2)o1` [Compound 110], the concentration for half-maximal inhibition (IC50) in the test on SK-OV-3 cells was 0.1 to 0.5 µM; at TDO2 enzyme it was above 30 µM.

`O=C(Nc1ccccc1)N(Cc1ccncc1)C1CCCC1` [Compound 74, 1-cyclopentyl-3-phenyl-1-(4-pyridylmethyl)urea]: the IC50 is above 5 µM with SK-OV-3 cells and above 30 µM at TDO2 enzyme. On the same counts, the results for `Cc1ccc(CN(C(=O)Nc2ccc(F)c(O)c2)C2CCCC2)o1` [Compound 104, 1-cyclopentyl-3-(4-fluoro-3-hydroxy-phenyl)-1-[(5-methyl-2-furyl)methyl]urea] are above 5 µM and above 30 µM. `CC(=O)N1CCC(C)(CN(C(=O)Nc2ccccc2)C2CCCC2)CC1` [Compound 97, 1-[(1-acetyl-4-methyl-4-piperidyl)methyl]-1-cyclopentyl-3-phenyl-urea]: the IC50 in the test on SK-OV-3 cells is 1 to 5 µM. Still for that read-out and setting: as for `Cc1ccc(CN(C(=O)Nc2ccc(Cl)cc2)C2CCCC2C#N)o1` (stereo not shown) [Compound 227, 3-(4-chlorophenyl)-1-(2-cyanocyclopentyl)-1-[(5-methyl-2-furyl)methyl]urea], the figure is below 0.1 µM. Same read-out and setting: as for `Cc1nc(C)c(CN(C(=O)Nc2ccccc2)C2CCCC2)s1` [Compound 170, 1-cyclopentyl-1-[(2,4-dimethylthiazol-5-yl)methyl]-3-phenyl-urea], the figure is 1 to 5 µM. The same measure, in the same setting: as for `O=C(Nc1ccc(Cl)cc1)N(Cc1cc2ccccn2n1)C1CCC1` [Compound 239, 3-(4-chlorophenyl)-1-cyclobutyl-1-(pyrazolo[1,5-a]pyridin-2-ylmethyl)urea], the figure is 0.1 to 0.5 µM. As for `Cc1ccc(CN(C(=O)Nc2ccc(C#CCc3ccccc3)cc2)C2CCCC2)o1` [Compound 156, 1-cyclopentyl-1-[(5-methyl-2-furyl)methyl]-3-[4-(3-phenylprop-1-ynyl)phenyl]urea], the IC50 with SK-OV-3 cells is 0.5 to 1 µM. `Cc1ccc(CN(C(=O)Nc2ccc(C#N)cc2)C2CC3(COC3)C2)o1` [Compound 287, 3-(4-cyanophenyl)-1-[(5-methyl-2-furyl)methyl]-1-(2-oxaspiro[3.3]heptan-6-yl)urea]: in the test with SK-OV-3 cells, the IC50 is above 5 µM. The same measure, in the same setting: next, `O=C(Nc1ccc(F)c(F)c1)N(Cc1ccccc1Cl)C1CCCC1` [Compound 40, 1-[(2-chlorophenyl)methyl]-1-cyclopentyl-3-(3,4-difluorophenyl)urea]: 0.1 to 0.5 µM; `Cc1ccc(CN(C(=O)Nc2nnc(-c3cccs3)o2)C2CCCC2)o1` [Compound 168, 1-cyclopentyl-1-[(5-methyl-2-furyl)methyl]-3-[5-(2-thienyl)-1,3,4-oxadiazol-2-yl]urea]: 0.5 to 1 µM. On the same count and under the same terms, next, `Cc1ccc(CN(C(=O)Nc2ccc(C#N)cc2)C2CC(F)C2)o1` (stereo not shown) [Compound 208, 3-(4-cyanophenyl)-1-(3-fluorocyclobutyl)-1-[(5-methyl-2-furyl)methyl]urea]: 0.5 to 1 µM. On the same count and under the same terms, next, `N#Cc1ccc(NC(=O)N(Cc2ccc3scnc3c2)C2CCC2)cc1` [Compound 261, 1-(1,3-benzothiazol-5-ylmethyl)-3-(4-cyanophenyl)-1-cyclobutyl-urea]: below 0.1 µM. In the case of `Cc1ccc(C(C)N(C(=O)Nc2ccc(Cl)cc2)C2CCCC2)o1` (racemic) [Compound 185, 3-(4-chlorophenyl)-1-cyclopentyl-1-[1-(5-methyl-2-furyl)ethyl]urea], the half-maximal inhibitory concentration (IC50) is below 0.1 µM in the test with SK-OV-3 cells and above 30 µM at TDO2 enzyme. For `Cc1ccc(CN(C(=O)Nc2ccc(C#N)cc2)c2ncccn2)o1` [Compound 324, 3-(4-cyanophenyl)-1-[(5-methyl-2-furyl)methyl]-1-pyrimidin-2-yl-urea], the 50% inhibitory concentration (IC50) with SK-OV-3 cells is above 5 µM.

As to `Cc1ccc(CN(C(=O)Nc2ccc(C#N)cc2)c2cncn2C)o1` [Compound 231, 3-(4-cyanophenyl)-1-[(5-methyl-2-furyl)methyl]-1-(3-methylimidazol-4-yl)urea], the IC50 in the test with SK-OV-3 cells was 1 to 5 µM. In the case of `O=C(Nc1ccccc1)N(Cc1cccs1)c1ccc(Cl)cc1` [Compound 196, 1-(4-chlorophenyl)-3-phenyl-1-(2-thienylmethyl)urea], the IC50 with SK-OV-3 cells is 1 to 5 µM.

For `O=C(Nc1ccc(Cl)cc1)N(Cc1cn2ccccc2n1)C1CCC1` [Compound 250, 3-(4-chlorophenyl)-1-cyclobutyl-1-(imidazo[1,2-a]pyridin-2-ylmethyl)urea], in the test with SK-OV-3 cells, the IC50 was in the range of 1 to 5 µM. Turning to `N#Cc1ccc(NC(=O)N(Cc2ccc3nsnc3c2)C2CCC2)cc1` [Compound 255, 1-(2,1,3-benzothiadiazol-5-ylmethyl)-3-(4-cyanophenyl)-1-cyclobutyl-urea], the IC50 in the test on SK-OV-3 cells fell in the range of 0.1 to 0.5 µM.

For the compound `CC1(CN(C(=O)Nc2ccccc2)C2CCCC2)CCNCC1` [Compound 85, 1-cyclopentyl-1-[(4-methyl-4-piperidyl)methyl]-3-phenyl-urea], the IC50 in the test on SK-OV-3 cells lay within 1 to 5 µM. `Cc1ccc(CN(C(=O)Nc2ccc(Cl)cc2)[C@H]2C[C@H](F)C2)o1` [Compound 273, 3-(4-chlorophenyl)-1-(3-fluorocyclobutyl)-1-[(5-methyl-2-furyl)methyl]urea]: the IC50 in the test on SK-OV-3 cells was 0.1 to 0.5 µM.

Take `Cn1ncc(CN(C(=O)Nc2ccc(F)cc2)C2CCCC2)c1Cl` [Compound 44, 1-[(5-chloro-1-methyl-pyrazol-4-yl)methyl]-1-cyclopentyl-3-(4-fluorophenyl) urea]: the IC50 in the test on SK-OV-3 cells lay within 0.5 to 1 µM. For `COC1CC(N(Cc2ccc(C)o2)C(=O)Nc2ccc(Cl)cc2)C1` (stereo not shown) [Compound 251, 3-(4-chlorophenyl)-1-(3-methoxycyclobutyl)-1-[(5-methyl-2-furyl)methyl]urea], the IC50 in the test with SK-OV-3 cells lay within 0.5 to 1 µM. Same read-out and setting: next, `O=C(Nc1ccccc1)N(Cc1cccnc1)C1CCCC1` [Compound 65, 1-cyclopentyl-3-phenyl-1-(3-pyridylmethyl)urea]: 1 to 5 µM. Still for that read-out and setting: next, `CC1(CN(C(=O)Nc2ccc(Cl)cc2)C2CCCC2)CCN(C(=O)OC(C)(C)C)CC1` [Compound 79, tert-butyl 4-[[(4-chlorophenyl)carbamoyl-cyclopentyl-amino]methyl]-4-methyl-piperidine-1-carboxylate]: 0.1 to 0.5 µM. The same measure, in the same setting: as for `Cc1ccc(CN(C(=O)NCc2ccc(C#N)cc2)C2CCCC2)o1` [Compound 96, 3-[(4-cyanophenyl)methyl]-1-cyclopentyl-1-[(5-methyl-2-furyl)methyl]urea], the figure is above 5 µM. As to `Cc1ccc(CN(C(=O)Nc2ccc(C#CCO)cc2)C2CCC2)o1` [Compound 297, 1-cyclobutyl-3-[4-(3-hydroxyprop-1-ynyl)phenyl]-1-[(5-methyl-2-furyl)methyl]urea], the IC50 in the test on SK-OV-3 cells was below 0.1 µM.
